# In paper PMC9299503, “Catalytic Control of Spiroketal Formation in Rubromycin Polyketide Biosynthesis” (Angewandte Chemie (International Ed. in English), 2021):
# What was measured:
# GrhO5 [1] = target: T1, GrhO5 (Streptomyces sp. JP95, UniProt Q8KSX7); assay: X-ray crystal structure, […] Å; assay type: binding; conditions: ligand-free acceptor state, FAD in OUT
# T1 construct: crystallised; domains I-III, residues 1-537 described; construct details only in supplement
# T1 sequence (Q8KSX7 1-537): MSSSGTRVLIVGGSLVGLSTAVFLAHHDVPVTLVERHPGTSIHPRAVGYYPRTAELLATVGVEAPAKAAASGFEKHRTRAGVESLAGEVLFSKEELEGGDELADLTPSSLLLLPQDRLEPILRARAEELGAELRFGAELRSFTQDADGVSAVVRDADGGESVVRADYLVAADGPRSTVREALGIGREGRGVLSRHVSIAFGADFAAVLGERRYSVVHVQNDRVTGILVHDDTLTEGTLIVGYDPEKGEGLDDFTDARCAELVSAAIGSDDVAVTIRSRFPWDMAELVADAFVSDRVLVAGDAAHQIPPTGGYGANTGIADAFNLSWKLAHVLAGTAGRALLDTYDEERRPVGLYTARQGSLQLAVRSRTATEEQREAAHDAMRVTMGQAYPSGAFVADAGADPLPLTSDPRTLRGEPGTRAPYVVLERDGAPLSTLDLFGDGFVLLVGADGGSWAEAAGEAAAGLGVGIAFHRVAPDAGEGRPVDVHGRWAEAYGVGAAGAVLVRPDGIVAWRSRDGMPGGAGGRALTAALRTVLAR
# GrhO5 [2] = target: T1, GrhO5; assay: X-ray crystal structure, crystals soaked with […]; assay type: binding; conditions: FAD in OUT, reducible state; bound ligand may be 3 or its reduced form 5 (dihydrocollinone)
SMILES,"X-ray crystal structure, 1.75 Å (GrhO5 [1])","X-ray crystal structure, crystals soaked with 3 (GrhO5 [2])"
Cc1cc2nc3c(=O)[nH]c(=O)nc-3n(C[C@H](O)[C@H](O)[C@H](O)COP(=O)(O)OP(=O)(O)OC[C@H]3O[C@@H](n4cnc5c(N)ncnc54)[C@H](O)[C@@H]3O)c2cc1C [FAD],"domains I and II are essential for FAD‐ and substrate binding, respectively",
"COc1cc(=O)c2c(=O)c3c(c(=O)c=2c1=O)=C(O)[C@@]1(O)c2c(cc4cc(C)oc(=O)c4c2O)CC[C@@]1(O)C=3O [compound 3, collinone]",,"revealed clear electron density in the open, solvent‐exposed substrate‐binding site"
